Article PMC8634040, “The multi-target aspect of an MmpL3 inhibitor: The BM212 series of compounds bind EthR2, a transcriptional regulator of ethionamide activation” (The Cell Surface, 2021)

Legend:
[1] = biological target: T1, BCG_0109 (EthR2) (Mycobacterium tuberculosis, UniProt O53623); test: chemoproteomic competition with immobilised GSK569A/GSK574A beads, TMT LC-MS/MS; IC50 […]; assay type: biochemical
T1 construct: gene Rv0078

[2] = biological target: T2, BCG_0174 (SnoaL-like domain-containing, ortholog to Rv0138) (Mycobacterium tuberculosis, UniProt A0A679LAM0); test: as above; assay type: biochemical
T2 construct: gene BQ2027_MB0143
T2 sequence (A0A679LAM0 entry or part of it): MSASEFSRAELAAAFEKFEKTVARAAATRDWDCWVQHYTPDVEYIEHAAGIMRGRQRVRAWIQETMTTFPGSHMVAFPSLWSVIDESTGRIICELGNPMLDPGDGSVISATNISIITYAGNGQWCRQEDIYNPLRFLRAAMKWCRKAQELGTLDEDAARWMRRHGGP

[3] = biological target: EthR2 (Rv0078) (Mycobacterium tuberculosis, UniProt O53623); test: biochemical; assay type: binding
Chain of EthR2 (Rv0078) (O53623 entry or part of it): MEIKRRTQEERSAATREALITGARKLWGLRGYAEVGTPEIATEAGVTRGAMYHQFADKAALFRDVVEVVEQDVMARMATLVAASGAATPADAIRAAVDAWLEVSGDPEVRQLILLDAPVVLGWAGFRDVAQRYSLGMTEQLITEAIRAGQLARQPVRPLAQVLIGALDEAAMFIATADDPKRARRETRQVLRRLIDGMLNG

T1 sequence (O53623 entry or part of it): as above

| SMILES | Kd [1] | Kd [2] | Kd [3] |
| --- | --- | --- | --- |
| Cc1c(CN2CCN(C)CC2)cc(-c2ccc(C(C)C)cc2)n1-c1ccc(F)cc1 [GSK074A, 1-((1-(4-Fluorophenyl)-5-(4-isopropylphenyl)-2-methyl-1H-pyrrol-3-yl)methyl)-4-methylpiperazine] | 2900 nM | 7300 nM |  |
| Cc1c(CN2CCN(C)CC2)cc(-c2ccc(Cl)cc2)n1-c1ccc(Cl)cc1 [BM212, 1-((1,5-bis(4-chlorophenyl)-2-methyl-1H-pyrrol-3-yl)methyl)-4-methylpiperazine] |  |  | 660 nM |
